Data as given in patent publication US20080274892A1, “Novel Haloalkylsulfonanilide Derivative, Herbicide, and Method of Use Thereof” (priority 2005, published 2008).

Experiments:
false pimpernel [1] = test: Test Example 1: herbicidal efficacy on rice paddy weeds pre-emergence; assay type: in vivo, Lindernia pyxidaria; conditions: dosage 1000 g/ha, 21 days
barnyard glass = test: Test Example 2: herbicidal efficacy on rice paddy weeds post-emergence; assay type: in vivo, Echinochloa crus-galli; conditions: dosage 1000 g/ha; post-emergence, one leaf stage; 21 days after treatment
Procedure, shortened: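 Efficacy on paddy weeds was scored on a 0 to 4 growth-inhibition scale: 4 for 90%-100%, 3 for 70%-89%, 2 for 40%-69%, 1 for 1%-39% and 0 for 0%. Barnyard glass was grown in clay loam in 75 cm^2 pots under 5 cm of water in a hot house. It was compared with untreated pots 21 days after treatment.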

false pimpernel [2] = test: as above; assay type: in vivo, Lindernia pyxidaria; conditions: dosage 1000 g/ha; post-emergence, one leaf stage; 21 days after treatment
bulrush [3] = test: Test Example 1: herbicidal efficacy on rice paddy weeds pre-emergence; assay type: in vivo, Scirpus juncoides; conditions: dosage 1000 g/ha, 21 days
[4] = test system: transplanted paddy rice plant and Bulrush; test: Test Example 5: selectivity between transplanted paddy rice plant and weeds; assay type: in vivo; conditions: (highest dosage with no phytotoxicity to paddy rice)/(lowest dosage with effective level 4 on Bulrush); rice 3000-100 g/ha, Bulrush 300-10 g/ha; 21 days
Procedure, shortened: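 Scoring ran 21 days after treatment in a hothouse on a 0–4 scale (4 = 90–100%, 3 = 70–89%, 2 = 40–69%, 1 = 1–39%, 0 = none) relative to untreated plants. Post-emergence bulrush received 10, 30, 100 and 300 g/ha active ingredient. Transplanted rice received 100, 300, 1000 and 3000 g/ha to assess crop injury.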

bulrush [5] = test: Test Example 2: herbicidal efficacy on rice paddy weeds post-emergence; assay type: in vivo, Scirpus juncoides; conditions: dosage 1000 g/ha; post-emergence, one leaf stage; 21 days after treatment
bulrush [6] = test: Test Example 4: low dosage test for rice paddy weeds; assay type: in vivo, Scirpus juncoides; conditions: 300 g/ha as an active ingredient; plants treated at the one leaf stage; 21 days after treatment; vs untreated control
Procedure, shortened: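 Compound applied as a formulation at 300 g/ha to one-leaf bulrush grown in flooded clay loam (5 cm water) in a hot house. After 21 days, growth inhibition versus untreated plants rated on a 0–4 scale, with 4 meaning 90–100%.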

[7] = test system: paddy rice plant (cultivar: Nihonbare); test: Test Example 3: phytotoxicity test for transplanted paddy rice plant; assay type: in vivo; conditions: dosage 1000 g/ha; transplanted rice, treated 5 days after transplantation; 21 days after treatment
Procedure, shortened: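 Clay loam soil was placed in a 75 cm^2 plastic pot and flooded to a water depth of 5 cm. Two Nihonbare paddy rice plants at the two-leaf stage were transplanted 1 cm deep and grown in a hot house. After treatment, pots stayed in the hot house for 21 days, and phytotoxicity was then graded against an untreated control.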

Compound | False pimpernel pre (herbicidal efficacy grade) (false pimpernel [1]) | Burnyard grass post (herbicidal efficacy grade) (barnyard glass) | False pimpernel post (herbicidal efficacy grade) (false pimpernel [2]) | Bulrush pre (herbicidal efficacy grade) (bulrush [3]) | Selective Index [4] | Bulrush post (herbicidal efficacy grade) (bulrush [5]) | Herbicide effect to Bulrush (bulrush [6]) | Phytotoxicity to paddy rice [7]
CC(C)C1CN(Cc2ccccc2NS(=O)(=O)C(F)(F)F)C(=O)O1 (stereo not shown) [1-31] | 4 (90%-100% of herbicidal efficacy or phytotoxicity) | 4 (90%-100% of herbicidal efficacy or phytotoxicity) | 4 (90%-100% of herbicidal efficacy or phytotoxicity) | 4 (90%-100% of herbicidal efficacy or phytotoxicity) | ≧10 | 4 (90%-100% of herbicidal efficacy or phytotoxicity) | 4 (90%-100% of herbicidal efficacy or phytotoxicity) | 1 (1%-39% of herbicidal efficacy or phytotoxicity)
CC(C)COC(=O)N(c1ccccc1CN1CC(C(C)C)OC1=O)S(=O)(=O)C(F)(F)F (stereo not shown) [1-32] | 4 (90%-100% of herbicidal efficacy or phytotoxicity) | 4 (90%-100% of herbicidal efficacy or phytotoxicity) | 4 (90%-100% of herbicidal efficacy or phytotoxicity) | 4 (90%-100% of herbicidal efficacy or phytotoxicity) | 10 | 4 (90%-100% of herbicidal efficacy or phytotoxicity) | 3 (70%-89% of herbicidal efficacy or phytotoxicity) | 0 (0% of herbicidal efficacy or phytotoxicity)
CC(C)COC(=O)N(c1ccccc1CN1CC(CCl)OC1=O)S(=O)(=O)C(F)(F)F (stereo not shown) [1-40] | 4 (90%-100% of herbicidal efficacy or phytotoxicity) | 4 (90%-100% of herbicidal efficacy or phytotoxicity) | 4 (90%-100% of herbicidal efficacy or phytotoxicity) | 4 (90%-100% of herbicidal efficacy or phytotoxicity) | 100 | 4 (90%-100% of herbicidal efficacy or phytotoxicity) | 4 (90%-100% of herbicidal efficacy or phytotoxicity) | 0 (0% of herbicidal efficacy or phytotoxicity)
CC1(C)CN(Cc2ccccc2NS(=O)(=O)C(F)(F)F)C(=O)O1 [1-43] | 4 (90%-100% of herbicidal efficacy or phytotoxicity) | 4 (90%-100% of herbicidal efficacy or phytotoxicity) | 4 (90%-100% of herbicidal efficacy or phytotoxicity) | 4 (90%-100% of herbicidal efficacy or phytotoxicity) | 10 | 4 (90%-100% of herbicidal efficacy or phytotoxicity) | 4 (90%-100% of herbicidal efficacy or phytotoxicity) | 2 (40%-69% of herbicidal efficacy or phytotoxicity)
CC(C)COC(=O)N(c1ccccc1CN1CC(C)(C)OC1=O)S(=O)(=O)C(F)(F)F [1-44] | 4 (90%-100% of herbicidal efficacy or phytotoxicity) | 4 (90%-100% of herbicidal efficacy or phytotoxicity) | 4 (90%-100% of herbicidal efficacy or phytotoxicity) | 4 (90%-100% of herbicidal efficacy or phytotoxicity) | 30 | 4 (90%-100% of herbicidal efficacy or phytotoxicity) | 4 (90%-100% of herbicidal efficacy or phytotoxicity) | 2 (40%-69% of herbicidal efficacy or phytotoxicity)
